Entries after “also recorded” stand apart in the source; their conditions may differ.
Tests used:
caspase-3 and −7 = assay: Caspase-3 and -7 inhibition, acetyl-DEVD-AMC fluorogenic substrate assay (text does not say which caspase); format: biochemical; details: for Selectivity Index (SI): IC50 caspase-7/IC50 caspase-3, greater than 1.5 = selective inhibitor of caspase-3; for inhibitory activity against caspase-3 and −7 (in words): compared to Ac-DEVD-CHO; for inhibition percentage: at 20 μg/ml, caspase not given
Procedure: (§1) The inhibitory activities of newly synthesised 2–(2,3-dioxoindolin-1-yl)-N-substituted phenyl acetamide, 1-(prop-2-yn-1-yl)indoline-2,3-dione and two series of compounds containing 1-(pyrrolidinyl)sulphonyl and 2-(phenoxymethyl)pyrrolidin-1-yl)sulphonyl substitution at C^5 position of isatin core (B, C, Table 1) against caspase-3 and −7 were evaluated by using the acetyl-DEVD-AMC fluorogenic substrate assay. The results are expressed as inhibition percentage and IC50 values in Table 1. We used Ac-DEVD-CHO as the positive control.
(§2) The activity assay of caspase-3 was performed in a system of 50 µL containing 150 mM NaCl, 1 mM EDTA, 2 mM DTT, 50 mM HEPES pH 7.4, 10 µM Ac-DEVD-AMC (Bachem Bioscience, Philadelphia, PA, USA) and 2 nM caspase-3 in the 1 µL DMSO. Caspase-3 was incubated with synthesised compounds in 384-well plates for 10 min. […] The enzymatic activity of the caspase-3 was measured based on production of a fluorogenic substrate, 7-amino-4-methyl coumarin, which was monitored for 10 min and detected using an EnVision (PerkinElmer, Wellesley, MA, USA) at λex = 360 nm and λem= 460 nm. The initial rate of hydrolysis was determined using the early linear region of the enzymatic reaction curve.

caspase-3 = target: T1, caspase-3 (Homo sapiens, UniProt P42574); assay: Caspase-3 inhibition assay (Ac-DEVD-AMC fluorogenic substrate); format: biochemical
T1 sequence (P42574 29-175 limits assumed): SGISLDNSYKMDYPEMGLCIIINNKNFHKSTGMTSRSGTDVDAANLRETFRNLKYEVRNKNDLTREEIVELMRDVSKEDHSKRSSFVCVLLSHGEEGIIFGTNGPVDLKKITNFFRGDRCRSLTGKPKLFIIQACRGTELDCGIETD
T1 sequence (P42574 176-277 limits assumed): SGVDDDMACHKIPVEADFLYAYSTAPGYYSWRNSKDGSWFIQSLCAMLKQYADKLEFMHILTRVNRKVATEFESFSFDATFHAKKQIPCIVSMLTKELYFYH
Procedure: as §1, §2

Compound | melting point [°C] | further results
O=C(CN1C(=O)C(=O)c2cc(S(=O)(=O)N3CCC[C@H]3COc3ccccc3)ccc21)Nc1ccc([N+](=O)[O-])cc1 [20h, (S)-2–(2,3-Dioxo-5-((2-(phenoxymethyl)pyrrolidin-1-yl)sulphonyl)indolin-1-yl)-N-(4-nitrophenyl)acetamide] | 162 to 164 | 
O=C(CN1C(=O)C(=O)c2cc(S(=O)(=O)N3CCC[C@H]3COc3ccccc3)ccc21)Nc1ccc(Br)cc1 [20e, (S)-N-(4-Bromophenyl)-2–(2,3-dioxo-5-((2-(phenoxymethyl)pyrrolidin-1-yl)sulphonyl)indolin-1-yl)acetamide] | 196 to 198 | Selectivity Index (SI) (caspase-3 and −7): greater than 1.5
COc1ccc(NC(=O)CN2C(=O)C(=O)c3cc(S(=O)(=O)N4CCC[C@H]4COc4ccccc4)ccc32)cc1 [20k, (S)-2–(2,3-Dioxo-5-((2-(phenoxymethyl)pyrrolidin-1-yl)sulphonyl)indolin-1-yl)-N-(4-methoxyphenyl)acetamide] | 204 to 206 | inhibitory activity against caspase-3 and −7 (in words) (caspase-3 and −7): lowest enzymatic inhibition
O=C(CN1C(=O)C(=O)c2cc(S(=O)(=O)N3CCC[C@H]3COc3ccccc3)ccc21)Nc1ccccc1[N+](=O)[O-] [20f, (S)-2–(2,3-Dioxo-5-((2-(phenoxymethyl)pyrrolidin-1-yl)sulphonyl)indolin-1-yl)-N-(2-nitrophenyl)acetamide] | 180 to 182 | inhibitory activity against caspase-3 and −7 (in words) (caspase-3 and −7): moderated caspase-3 and −7 inhibitors
O=C(CN1C(=O)C(=O)c2ccccc21)Nc1ccc([N+](=O)[O-])cc1 [11h, 2–(2,3-Dioxoindolin-1-yl)-N-(4-nitrophenyl)acetamide] | 179 to 181 | 
O=C(CN1C(=O)C(=O)c2cc(S(=O)(=O)N3CCC[C@H]3COc3ccccc3)ccc21)Nc1ccc(Cl)cc1 [20d, (S)-N-(4-chlorophenyl)-2–(2,3-dioxo-5-((2-(phenoxymethyl)pyrrolidin-1-yl)sulphonyl)indolin-1-yl)acetamide] | 209 to 211 | IC50 (caspase-3): 2330 nM; Selectivity Index (SI) (caspase-3 and −7): greater than 1.5; inhibitory activity against caspase-3 and −7 (in words) (caspase-3 and −7): most active compound; also recorded: moderate inhibitory activity
O=C(CN1C(=O)C(=O)c2ccccc21)Nc1ccc(Br)cc1 [11e, N-(4-Bromophenyl)-2–(2,3-dioxoindolin-1-yl)acetamide] | 179 to 181 | 
O=C(CN1C(=O)C(=O)c2ccccc21)Nc1ccc(Cl)cc1 [11d, N-(4-Chlorophenyl)-2–(2,3-dioxoindolin-1-yl)acetamide] | 177 to 179 | 
Cc1ccc(NC(=O)CN2C(=O)C(=O)c3cc(S(=O)(=O)N4CCC[C@H]4COc4ccccc4)ccc32)cc1 [20j, (S)-2–(2,3-Dioxo-5-((2-(phenoxymethyl)pyrrolidin-1-yl)sulphonyl)indolin-1-yl)-N-(p-tolyl)acetamide] | 209 to 211 | inhibitory activity against caspase-3 and −7 (in words) (caspase-3 and −7): lowest enzymatic inhibition
Cc1ccc(NC(=O)CN2C(=O)C(=O)c3ccccc32)cc1 [11j, 2–(2,3-Dioxoindolin-1-yl)-N-(p-tolyl)acetamide] | 196 to 198 | 
O=C(CN1C(=O)C(=O)c2cc(S(=O)(=O)N3CCCC3)ccc21)Nc1ccc(F)cc1 [19c, 2–(2,3-Dioxo-5-(pyrrolidin-1-ylsulfonyl)indolin-1-yl)-N-(4-fluorophenyl)acetamide] | 191 to 193 | 
O=C(CN1C(=O)C(=O)c2ccccc21)Nc1ccc(OC(F)(F)F)cc1 [11i, 2–(2,3-Dioxoindolin-1-yl)-N-(4-(trifluoromethoxy)phenyl)acetamide] | 209 to 211 | 
O=C(CN1C(=O)C(=O)c2cc(S(=O)(=O)N3CCC[C@H]3COc3ccccc3)ccc21)Nc1ccc(F)cc1 [20c, (S)-2–(2,3-Dioxo-5-((2-(phenoxymethyl)pyrrolidin-1-yl)sulphonyl)indolin-1-yl)-N-(4-fluorophenyl)acetamide] | 108 to 110 | Selectivity Index (SI) (caspase-3 and −7): greater than 1.5
O=C(CN1C(=O)C(=O)c2ccccc21)Nc1ccccc1[N+](=O)[O-] [11f, 2–(2,3-Dioxoindolin-1-yl)-N-(2-nitrophenyl)acetamide] | 186 to 188 | inhibition percentage (caspase-3 and −7): 5%
O=C(CN1C(=O)C(=O)c2cc(S(=O)(=O)N3CCCC3)ccc21)Nc1ccc(OC(F)(F)F)cc1 [19i, 2–(2,3-Dioxo-5-(pyrrolidin-1-ylsulfonyl)indolin-1-yl)-N-(4-(trifluoromethoxy)phenyl)acetamide] | 266 to 267 | 
O=C(CN1C(=O)C(=O)c2ccccc21)Nc1ccccc1 [11b, 2–(2,3-Dioxoindolin-1-yl)-N-phenylacetamide] | 174 to 176 | 
C#CCN1C(=O)C(=O)c2ccccc21 [11a, 1-(Prop-2-yn-1-yl)indoline-2,3-dione] | 158 to 160 | 
Ac-DEVD-CHO [reference compound] |  | IC50 (caspase-3 and −7; caspase-3 and −7, Mean ± SD of three experiments, read-out: IC50 (positive control / studied compounds)): 16 ± 2 nM
COc1ccc(NC(=O)CN2C(=O)C(=O)c3ccccc32)cc1 [11k, 2–(2,3-Dioxoindolin-1-yl)-N-(4-methoxyphenyl)acetamide] | 201 to 203 | 
C#CCN1C(=O)C(=O)c2cc(S(=O)(=O)N3CCCC3)ccc21 [19a, 1-(Prop-2-yn-1-yl)-5-(pyrrolidin-1-ylsulfonyl)indoline-2,3-dione] | 203 to 205 | Selectivity Index (SI) (caspase-3 and −7): greater than 1.5
O=C(CN1C(=O)C(=O)c2ccccc21)Nc1cccc([N+](=O)[O-])c1 [11g, 2–(2,3-Dioxoindolin-1-yl)-N-(3-nitrophenyl)acetamide] | 191 to 192 | 
C#CCN1C(=O)C(=O)c2cc(S(=O)(=O)N3CCC[C@H]3COc3ccccc3)ccc21 [20a, (S)-5-((2-(Phenoxymethyl)pyrrolidin-1-yl)sulphonyl)-1-(prop-2-yn-1-yl)indoline-2,3-dione] | 282 to 284 | 
O=C(CN1C(=O)C(=O)c2cc(S(=O)(=O)N3CCC[C@H]3COc3ccccc3)ccc21)Nc1ccc(OC(F)(F)F)cc1 [20i, (S)-2–(2,3-Dioxo-5-((2-(phenoxymethyl)pyrrolidin-1-yl)sulphonyl)indolin-1-yl)-N-(4-(trifluoromethoxy)phenyl)acetamide] | 218 to 220 | 
O=C(CN1C(=O)C(=O)c2ccccc21)Nc1ccc(F)cc1 [11c, 2–(2,3-Dioxoindolin-1-yl)-N-(4-fluorophenyl)acetamide] |  | inhibition percentage (caspase-3 and −7): 71%
O=C(CN1C(=O)C(=O)c2cc(S(=O)(=O)N3CCC[C@H]3COc3ccccc3)ccc21)Nc1ccccc1 [20b, (S)-2–(2,3-Dioxo-5-((2-(phenoxymethyl)pyrrolidin-1-yl)sulphonyl)indolin-1-yl)-N-phenylacetamide] | 238 to 240 | 
O=C(CN1C(=O)C(=O)c2cc(S(=O)(=O)N3CCCC3)ccc21)Nc1ccccc1[N+](=O)[O-] [19f, 2–(2,3-Dioxo-5-(pyrrolidin-1-ylsulfonyl)indolin-1-yl)-N-(2-nitrophenyl)acetamide] | 195 to 197 | 
O=C(CN1C(=O)C(=O)c2cc(S(=O)(=O)N3CCC[C@H]3COc3ccccc3)ccc21)Nc1cccc([N+](=O)[O-])c1 [20g, (S)-2–(2,3-Dioxo-5-((2-(phenoxymethyl)pyrrolidin-1-yl)sulphonyl)indolin-1-yl)-N-(3-nitrophenyl)acetamide] | 181 to 183 | 
